Like-named read-outs stand apart in the source and are kept apart here.
Columns and labels:
[1] = tested on: NCI-H358 cells (express KRas G12C), Phospho-ERK; test: Cellular inhibition of KRas G12C: Phospho-ERK in NCI-H358 cells; assay type: cell-based; conditions: pERK(Thr202/Tyr204) normalized with GAPDH, NCI-H358 cells, 3 hours, read-out: IC50
Outline: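 IC50 derived by 4-parameter fit of GAPDH-normalized pERK(Thr202/Tyr204) signal, as percent of DMSO control. Signal came from in-cell immunodetection with infrared secondaries after 3 h compound exposure of KRas G12C NCI-H358 cells at 0.5% DMSO.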

KRas G12C = KRas G12C (Homo sapiens, UniProt P01116, C118S/C51S/C80L/G12C); test: KRas G12C Modification Assay (LCMS detection of covalent adduct); assay type: binding; conditions: normalized percent of control; tested at 5 μM concentration for 3 hours
Outline: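 Cys-light KRas G12C mutant protein incubated with compound in K-Ras assay buffer, reactions quenched at set time points with 25 mM acetic acid and analysed by intact-protein LC/MS on a C-3 column. Deconvoluted mass heights expressed as percent of control (POC) relative to compound-free protein.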

Row | Structure (SMILES) | IC50 ([1]; Homo sapiens, NCI-H358, 3 h) | POC (KRas G12C) | IC50 [1] | IC50 ([1]; Homo sapiens)
1 | C=CC(=O)N1CCN(c2nc(OC[C@@H]3C[C@@H](F)CN3C)nc3c2CCN(c2cc(OC)cc4ccccc24)C3)CC1 [Example 355, 1-[4-[2-[[(2S,4R)-4-fluoro-1-methyl-pyrrolidin-2-yl]methoxy]-7-(3-methoxy-1-naphthyl)-6,8-dihydro-5H-pyrido[3,4-d]pyrimidin-4-yl]piperazin-1-yl]prop-2-en-1-one] | > 1000 nM | A (“A”≤25% POC) | – | –
2 | C=CC(=O)N1CCN(c2nc(N3CC(N(C)C)C3)nc3c2CCN(c2cc(O)cc4ccccc24)C3)CC1 [Example 128, 1-(4-(2-(3-(dimethylamino)azetidin-1-yl)-7-(3-hydroxynaphthalen-1-yl)-5,6,7,8-tetrahydropyrido[3,4-d]pyrimidin-4-yl)piperazin-1-yl)prop-2-en-1-one] | > 1000 nM | C (“C”>50% POC) | – | –
3 | C=CC(=O)N1CCN(c2nc(OC[C@@H]3CCCN3C)nc3c2CCN(c2cccc4ccccc24)C3)CC1COC (stereo partly drawn) [Example 428, 1-(2-(methoxymethyl)-4-(2-(((S)-1-methylpyrrolidin-2-yl)methoxy)-7-(naphthalen-1-yl)-5,6,7,8-tetrahydropyrido[3,4-d]pyrimidin-4-yl)piperazin-1-yl)prop-2-en-1-one] | – | C (“C”>50% POC) | > 1000 nM | –
4 | C=CC(=O)N1CCN(c2nc(OCC3CCN(C4CC4)C3)nc3c2CCN(c2cc(O)cc4ccccc24)C3)CC1 (stereo not shown) [Example 190, 1-(4-(2-((1-cyclopropylpyrrolidin-3-yl)methoxy)-7-(3-hydroxynaphthalen-1-yl)-5,6,7,8-tetrahydropyrido[3,4-d]pyrimidin-4-yl)piperazin-1-yl)prop-2-en-1-one] | 0.1 to 1000 nM | C (“C”>50% POC) | – | –
5 | C=CC(=O)N1CCN(c2nc(OC[C@H]3COCCN3C)nc3c2CCN(c2cccc4ccccc24)C3)CC1CC#N (stereo partly drawn) [Example 273, 2-(1-acryloyl-4-(2-(((R)-4-methylmorpholin-3-yl)methoxy)-7-(naphthalen-1-yl)-5,6,7,8-tetrahydropyrido[3,4-d]pyrimidin-4-yl)piperazin-2-yl)acetonitrile] | > 1000 nM | C (“C”>50% POC) | – | –
6 | C=CC(=O)N1CCN(c2nc(O[C@H](C)CN(C)C)nc3c2CCN(c2cc(O)cc4ccccc24)C3)CC1 [Example 19, (R)-1-(4-(2-((1-(dimethylamino)propan-2-yl)oxy)-7-(3-hydroxynaphthalen-1-yl)-5,6,7,8-tetrahydropyrido[3,4-d]pyrimidin-4-yl)piperazin-1-yl)prop-2-en-1-one] | 0.1 to 1000 nM | C (“C”>50% POC) | – | –
7 | C=CC(=O)N1CCN(c2nc(OCCCN3C[C@@H]4C[C@H]3CO4)nc3c2CCN(c2cc(O)cc4ccccc24)C3)CC1CC#N (stereo partly drawn) [Example 153, 2-[4-[7-(3-hydroxy-1-naphthyl)-2-[3-[(1S,4S)-2-oxa-5-azabicyclo[2.2.1]heptan-5-yl]propoxy]-6,8-dihydro-5H-pyrido[3,4-d]pyrimidin-4-yl]-1-prop-2-enoyl-piperazin-2-yl]acetonitrile] | – | C (“C”>50% POC) | – | 0.1 to 1000 nM
8 | C=CC(=O)N1CCN(c2nc(O[C@H](C)CN3CCCCC3)nc3c2CCN(c2cc(O)cc4ccccc24)C3)CC1 [Example 75, (R)-1-(4-(7-(3-hydroxynaphthalen-1-yl)-2-((1-(piperidin-1-yl)propan-2-yl)oxy)-5,6,7,8-tetrahydropyrido[3,4-d]pyrimidin-4-yl)piperazin-1-yl)prop-2-en-1-one] | 0.1 to 1000 nM | C (“C”>50% POC) | – | –
9 | C=CC(=O)N1CCN(c2nc(OC[C@@H]3CCCN3C)nc3c2CCN(c2cccc4ccn(C)c24)C3)C[C@@H]1CC#N [Example 434, 2-((S)-1-acryloyl-4-(7-(1-methyl-1H-indol-7-yl)-2-(((S)-1-methylpyrrolidin-2-yl)methoxy)-5,6,7,8-tetrahydropyrido[3,4-d]pyrimidin-4-yl)piperazin-2-yl)acetonitrile] | 0.1 to 1000 nM | C (“C”>50% POC) | – | –
10 | C=CC(=O)N1CCN(c2nc(OC[C@@H]3CCC(C)(C)N3C)nc3c2CCN(c2cccc4ccccc24)C3)CC1CC#N (stereo partly drawn) [Example 301, 2-[4-[7-(1-naphthyl)-2-[[(2S)-1,5,5-trimethylpyrrolidin-2-yl]methoxy]-6,8-dihydro-5H-pyrido[3,4-d]pyrimidin-4-yl]-1-prop-2-enoyl-piperazin-2-yl]acetonitrile] | 0.1 to 1000 nM | C (“C”>50% POC) | – | –
11 | C=CC(=O)N1CCN(c2nc(OCCN3CCCCC3)nc3c2CCN(c2cccc4cccc(Cl)c24)C3)C[C@@H]1CC#N [Example 362, 2-[(2S)-4-[7-(8-chloro-1-naphthyl)-2-[2-(1-piperidyl)ethoxy]-6,8-dihydro-5H-pyrido[3,4-d]pyrimidin-4-yl]-1-prop-2-enoyl-piperazin-2-yl]acetonitrile] | 0.1 to 1000 nM | C (“C”>50% POC) | – | –
12 | C=CC(=O)N1CCN(c2nc(OCCCN3CCOCC3)nc3c2CCN(c2cc(O)cc(Cl)c2F)C3)CC1 [Example 232, 1-(4-(7-(3-chloro-2-fluoro-5-hydroxyphenyl)-2-(3-morpholinopropoxy)-5,6,7,8-tetrahydropyrido[3,4-d]pyrimidin-4-yl)piperazin-1-yl)prop-2-en-1-one] | – | C (“C”>50% POC) | – | > 1000 nM
13 | C=CC(=O)N1CCN(c2nc(OC[C@H]3CCCC(=O)N3)nc3c2CCN(c2cc(O)cc4ccccc24)C3)CC1 (single isomer, unassigned) [Example 62] | > 1000 nM | C (“C”>50% POC) | – | –
14 | C=CC(=O)N1CCN(c2nc(OC[C@@H]3C[C@H](O)CN3C)nc3c2CCN(c2cccc4ccccc24)C3)CC1CC#N (stereo partly drawn) [Example 418, 2-(1-acryloyl-4-(2-(((2S,4S)-4-hydroxy-1-methylpyrrolidin-2-yl)methoxy)-7-(naphthalen-1-yl)-5,6,7,8-tetrahydropyrido[3,4-d]pyrimidin-4-yl)piperazin-2-yl)acetonitrile] | 0.1 to 1000 nM | C (“C”>50% POC) | – | –
15 | C=CC(=O)N1CCN(c2nc(OC[C@@H]3C[C@@H](F)CN3C)nc3c2CCN(c2cccc4ccccc24)C3)C[C@@H]1CC#N [Example 306, 2-[(2S)-4-[2-[[(2S,4R)-4-fluoro-1-methyl-pyrrolidin-2-yl]methoxy]-7-(1-naphthyl)-6,8-dihydro-5H-pyrido[3,4-d]pyrimidin-4-yl]-1-prop-2-enoyl-piperazin-2-yl]acetonitrile] | 0.1 to 1000 nM | C (“C”>50% POC) | – | –
16 | C=CC(=O)N1CCN(c2nc(OC[C@@H]3CC(F)(F)CN3C)nc3c2CCN(c2cccc4cccc(Cl)c24)C3)C[C@@H]1CC#N [Example 366, 2-[(2S)-4-[7-(8-chloro-1-naphthyl)-2-[[(2S)-4,4-difluoro-1-methyl-pyrrolidin-2-yl]methoxy]-6,8-dihydro-5H-pyrido[3,4-d]pyrimidin-4-yl]-1-prop-2-enoyl-piperazin-2-yl]acetonitrile] | 0.1 to 1000 nM | C (“C”>50% POC) | – | –
17 | C=CC(=O)N1CCN(c2nc(OC[C@@H]3CCCN3C)nc3c2CCN(c2cccc4c(F)cccc24)C3)CC1CC#N (stereo partly drawn) [Example 254, 2-[4-[7-(5-fluoro-1-naphthyl)-2-[[(2S)-1-methylpyrrolidin-2-yl]methoxy]-6,8-dihydro-5H-pyrido[3,4-d]pyrimidin-4-yl]-1-prop-2-enoyl-piperazin-2-yl]acetonitrile] | 0.1 to 1000 nM | C (“C”>50% POC) | – | –
